Laboratory results from patent publication US11066381B2, “Urolithins-containing aqueous solution, dried solid composition thereof and production method therefor, and urolithins stabilizing method” (DAICEL CORPORATION, priority 2016, dated 2021).

Experiment: Stability improvement test for urolithin (residual ratio by HPLC after storage at 60° C.)
Assay type: physicochemical
Conditions: for Urolithin A residual ratio (%) (60° C.) 1 week later / Urolithin A residual ratio (%) (60° C.) 2 weeks later: aqueous solution with 10% ethanol, 10% glycerin, 0.005% urolithin A; for Urolithin A residual ratio (%) (60° C.) 1 week later: stored at 60° C. for 1 week; for Urolithin A residual ratio (%) (60° C.) 2 weeks later: stored at 60° C. for 2 weeks
Description: The stability of urolithin can be studied by measuring the total amount of urolithin before storage and the total amount of urolithin after storage under a temperature condition of 60° C. for one week or two weeks, and then calculating the urolithin residual ratio (%) according to the following calculation equation. As the method for measuring urolithin, for example, the method using HPLC described in Examples can be used. Urolithin residual ratio (%)=(total amount of urolithin after storage/total amount of urolithin before storage)×100 [Calculation Equation]
A description is given below for a case where urolithin A was used as the urolithin. Analysis of urolithin A was carried out using HPLC. More specifically, urolithin A (manufactured by Dalton Farma) was dissolved in an appropriate solvent to prepare a solution, and the solution was analyzed under the following HPLC conditions. Using the purity (%) (A) and the peak area value (B) in the HPLC, the factor of urolithin A and the urolithin A concentration in the sample were calculated according to the following calculation equation (1) and calculation equation (2). (Calculation Equation for Factor of Urolithin A) Factor of urolithin A=(B)/(concentration of standard solution of urolithin A (mg/L)×(A)/100) (1) (Calculation Equation for Urolithin A Concentration in Sample) Urolithin A concentration in sample (mg/L)=peak area value of urolithin A in sample/factor of urolithin A (2)
To an aqueous solution containing 10% ethanol and 10% glycerin, urolithin A was added to a concentration of 0.005%, and then the urolithin A was dissolved therein. To this solution, collagen (Hanamai) was added to a concentration of 0.5% to prepare a urolithin A-containing aqueous solution. The urolithin A content in the urolithin A-containing aqueous solution was measured after one week of storage and after two weeks of storage under a temperature condition of 60° C. By comparing the urolithin A contents measured before and after the storage, the residual ratio was calculated to evaluate the stability.
The same operation as in Example 1 was carried out except that collagen was not added, to provide a control as Comparative Example 1.
The residual ratio of urolithin A was calculated according to the following calculation equation (3). Urolithin residual ratio (%)=(content of urolithin A after storage/content of urolithin A before storage)×100 (3)

[1] = collagen 0% (Comparative Example 1)

- Urolithin A residual ratio (%) (60° C.) 1 week later [1]: 66.9%
- Urolithin A residual ratio (%) (60° C.) 2 weeks later [1]: 45.0%
- Urolithin A residual ratio (%) (60° C.) 1 week later (collagen 0.5% (Example 1)): 92.4%
- Urolithin A residual ratio (%) (60° C.) 2 weeks later (collagen 0.5% (Example 1)): 92.2%
- stability of urolithin A (in the presence of collagen versus without collagen, storage at 60° C.): increases in the presence of collagen
Compound: O=c1oc2cc(O)ccc2c2ccc(O)cc12 [Urolithin A, urolithin A]
